Structures can show the parent of a compound that is named as a salt.
Target: T1, human CCR5 (Homo sapiens, UniProt P51681)
T1 construct: expressed in transfected cells; whole cells in the well
Assay: CCR5 binding assay: inhibition of [125I]-RANTES binding to CHO/CCR5 cells
Conditions: 1.0 μM test compound, 100 pM [125I]-RANTES, room temperature 40 minutes
Description: (1) Cloning of Human CCR5 Chemokine Receptor
Cloning of CCR5 gene was carried out by PCR (polymerase chain reaction) from human spleen cDNA. With using 0.5 ng of spleen cDNA (Toyobo, QUICK-Clone cDNA) as template, PCR was performed in DNA Thermal Cycler 480 (Perkin-Elmer) (reaction conditions: 30 cycles of 95° C. for 1 minute, 60° C. for 1 minute, and 75° C. for 5 minutes) by adding primer set, 5′-[…]-3′ (25 pmol) and 5′-[…]-3′ (25 pmol), which were designed referring to nucleotide sequence of CCR5 gene reported by Samson et al. (Biochemistry, 35(11), 3362-3367 (1996)) and by using TaKaRa EX Taq (Takara Shuzo). The resultant PCR product was subjected to agarose gel electrophoresis to collect about 1.0 kb DNA fragment, which was subjected to Original TA Cloning Kit (Funakoshi) to carry out cloning of CCR5 gene.
(2) Preparation of Plasmid for Expression of Human […]
The plasmid obtained in the above (1) was digested with restriction enzymes XbaI (Takara Shuzo) and BamHI (Takara Shuzo) and subjected to agarose gel electrophoresis to collect about 1.0 kb DNA fragment. The DNA fragment was mixed with plasmid pcDNA3.1 (Funakoshi) for expression in animal cells, said plasmid being digested with XbaI and BamHI, and they were ligated with DNA Ligation Kit Ver.2 (Takara Shuzo). The resulting plasmid was subjected to transformation of competent cell of E. coli JM109 (Takara Shuzo) to obtain plasmid pCKR5.
(3) Introduction of Plasmid for Expression of Human CCR5 into CHO-K1 Cell and Expression of said Plasmid in CHO-KY Cell
CHO-K1 cells were grown in 750 ml of tissue culture flask (Becton Dickinson) using Ham's F12 medium (Nihon Pharmaceutical) containing 10% fetal calf serum (Life Tech Oriental) and took off with 0.5 g/L trypsin-0.2 g/L EDTA (Life Tech Oriental). The cells were washed with PBS (Life Tech Oriental), centrifuged (1000 rpm, 5 minutes), and suspended in PBS. With using Gene Pulser (Bio-Rad Laboratories), DNA was introduced into the cells under the conditions shown below. That is, to the cuvette of 0.4 cm gap were added 8×10^6 cells and 10 μg of plasmid pCKR5 for expression of human CCR5, and electroporation was carried out under 0.25 kV of voltage and […] of capacitance. The cells were transferred into Ham's F12 medium (Nihon Pharmaceutical) containing 10% fetal calf serum, and cultivated for 24 hours. The cells were again took off and centrifuged, and suspended in Ham's F12 medium (Nihon Pharmaceutical) containing 10% fetal calf serum and 500 μg/ml of geneticin (Life Tech Oriental). The suspension was diluted to give 10^4 cells/ml of the suspension, which was inoculated on 96 well plate (Becton Dickinson) to give geneticin resistant cells. The resulting geneticin resistant cells were cultivated in 96 well plate (Becton Dickinson), and cells expressing CCR5 were selected from the geneticin resistant cells. That is, in assay buffer (Ham's F12 medium containing 0.5% BSA and 20 mM HEPES (Wako Pure Chemical, pH7.2) to which was added 200 pM of [^125I]-RANTES (Amersham) as ligand, binding reaction was carried out at room temperature for 40 minutes, and the buffer was washed with cooled PBS. To the buffer was added 50 μl/well of 1M NaOH, and the mixture was stirred. Radioactivity was determined with γ-counter to select CHO/CCR5 cells which specifically bind to the ligand.
(4) Evaluation of Test Compounds Based on CCR5 Antagonistic Activity
The CHO/CCR5 were inoculated on 96 well microplate (5×10^4 cells/well) and cultivated for 24 hours. The medium was removed by means of suction, and to each well was added assay buffer containing Test Compound (191) and then 100 pM of [^125I]-RANTES (Amersham) as ligand. Binding assay was carried out at room temperature for 40 minutes, and assay buffer was removed by means of suction. Each well was washed twice with cooled PBS, and 200 μl of Microscint-20 (Packard Instrument, Inc.) was added to each well.

T1 sequence (P51681 whole entry): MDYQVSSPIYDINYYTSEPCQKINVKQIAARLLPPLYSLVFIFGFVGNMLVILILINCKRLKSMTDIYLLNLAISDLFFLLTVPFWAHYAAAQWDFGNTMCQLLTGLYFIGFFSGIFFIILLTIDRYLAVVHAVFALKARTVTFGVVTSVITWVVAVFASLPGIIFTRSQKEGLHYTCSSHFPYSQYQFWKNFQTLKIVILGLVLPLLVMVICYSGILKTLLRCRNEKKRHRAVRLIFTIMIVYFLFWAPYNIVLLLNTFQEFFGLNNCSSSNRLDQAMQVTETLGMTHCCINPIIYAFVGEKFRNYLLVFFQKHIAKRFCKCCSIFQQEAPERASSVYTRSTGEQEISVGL

Row | Inhibition Rate (%) at 1.0 μM [%] | SMILES
1 | 96 | CC(=O)N1CCC(C(=O)N(CCCN2CCN(Cc3c(C)noc3C)CC2)c2cccc(Cl)c2)CC1.O=C(O)C(F)(F)F.O=C(O)C(F)(F)F [Example 272, 1-Acetyl-N-(3-chlorophenyl)-N-(3-{4-[(3,5-dimethylisoxazol-4-yl)methyl]-1-piperazinyl}propyl)-4-piperidinecarboxamide 2 Trifluoroacetate]
2 | 97 | CC(=O)N1CCC(C(=O)N(CCCN2CCC(Sc3nc4ccccc4s3)CC2)c2ccc(Cl)c(Cl)c2)CC1 [Example 224]

Same assay, conditions: 1.0 μM test compound, 100 pM [125I]-RANTES, room temperature 40 minutes, read-out: Inhibition Rate (%) at 1.0 μM

Row | SMILES | inhibition at 1 µM [%]
3 | CS(=O)(=O)N1CCC(C(=O)N(CCCN2CCC(Cc3ccc(S(=O)(=O)N4CCOCC4)cc3)CC2)c2ccc(Cl)c(Cl)c2)CC1 [Example 356, N-(3,4-Dichlorophenyl)-1-(methylsulfonyl)-N-(3-{4-[4-(4-morpholinylsulfonyl)benzyl]-1-piperidinyl}propyl)-4-piperidinecarboxamide] | 100
4 | CS(=O)(=O)N1CCC(NC(=O)N(CCCN2CCC(Cc3ccccc3)CC2)c2ccccc2)CC1 [Example 15, N-[3-(4-Benzyl-1-piperidinyl)propyl]-N′-[1-(methylsulfonyl)-4-piperidinyl]-N-phenylurea] | 97
5 | CC(C)S(=O)(=O)c1ccc(CC2CCN(CCCN(C(=O)C3CCN(S(C)(=O)=O)CC3)c3ccc(Cl)c(Cl)c3)CC2)cc1 [Example 384, N-(3,4-Dichlorophenyl)-N-(3-{4-[4-(isopropylsulfonyl)benzyl]-1-piperidinyl}propyl)-1-(methylsulfonyl)-4-piperidinecarboxamide] | 100
6 | CC(=O)N1CCC(C(=O)N(CCCN2CCN(Cc3ccc4c(c3)OCO4)CC2)c2cccc(Cl)c2)CC1 [Example 57, 1-Acetyl-N-(3-chlorophenyl)-N-[3-(4-piperonyl-1-piperazinyl)propyl]-4-piperidinecarboxamide Trifluoroacetate] | 96
7 | CS(=O)(=O)N1CCC(C(=O)N(CCCN2CCC(Cc3ccc(S(N)(=O)=O)cc3)CC2)c2ccc(Cl)c(Cl)c2)CC1 [Example 244, N-(3-{4-[4-(Aminosulfonyl)benzyl]-1-piperidinyl}propyl)-N-(3,4-dichlorophenyl)-1-(methylsulfonyl)-4-piperidinecarboxamide] | 100
8 | CS(=O)(=O)Nc1ccc(CC2CCN(CCCN(C(=O)C3CCN(S(C)(=O)=O)CC3)c3ccc(Cl)c(Cl)c3)CC2)cc1 [Example 313-2, N-(3,4-Dichlorophenyl)-1-(methylsulfonyl)-N-[3-(4-{4-[(methylsulfonyl)amino]benzyl}-1-piperidinyl)propyl]-4-piperidinecarboxamide] | 97
9 | CCS(=O)(=O)c1ccc(CC2CCN(CCCN(C(=O)C3CCN(S(C)(=O)=O)CC3)c3cccc(Cl)c3)CC2)cc1 [Example 413, N-(3-Chlorophenyl)-N-(3-{4-[4-(ethylsulfonyl)benzyl]-1-piperidinyl}propyl)-1-(methylsulfonyl)-4-piperidinecarboxamide Hydrochloride] | 99
10 | CC(C)S(=O)(=O)N1CCC(C(=O)N(CCCN2CCC(Cc3ccc(F)cc3)CC2)c2ccc(Cl)c(Cl)c2)CC1 [Example 92, N-(3,4-Dichlorophenyl)-N-{3-[4-(4-fluorobenzyl)-1-piperidinyl]propyl}-1-(isopropylsulfonyl)-4-piperidinecarboxamide Trifluoroacetate] | 92

Next, values leading:

Row | inhibition at 1 µM [%] | SMILES
11 | 87 | CC(=O)N1CCC(C(=O)N(CCCN2CCC(Cc3ccc(F)cc3)CC2)c2cccc(Cl)c2)CC1 [Example 18, 1-Acetyl-N-(3-chlorophenyl)-N-{3-[4-(4-fluorobenzyl)-1-piperidinyl]propyl}-4-piperidinecarboxamide]
12 | 100 | CC(=O)N1CCC(C(=O)N(CCCN2CCC(S(=O)(=O)c3ccc(F)cc3)CC2)c2ccc(Cl)c(Cl)c2)CC1 [Example 189, 1-Acetyl-N-(3,4-dichlorophenyl)-N-{3-[4-(4-fluorophenylsulfonyl)-1-piperidinyl]propyl}-4-piperidinecarboxamide]
13 | 100 | CS(=O)(=O)N1CCC(C(=O)N(CCCN2CCC(S(=O)(=O)c3ccc(F)cc3)CC2)c2ccc(Cl)c(Cl)c2)CC1 [Example 190, N-(3,4-Dichlorophenyl)-N-{3-[4-(4-fluorophenylsulfonyl)-1-piperidinyl]propyl}-1-(methylsulfonyl)-4-piperidinecarboxamide]
14 | 83 | CC(=O)N1CCC(C(=O)N(CCCN2CCC(n3nnc4ccccc43)CC2)c2cccc(Cl)c2)CC1 [Example 289, 1-Acetyl-N-{3-[4-(1H-1,2,3-benzotriazol-1-yl)-1-piperidinyl]propyl}-N-(3-chlorophenyl)-4-piperidinecarboxamide]
15 | 96 | COc1ccc(CC2CCN(CCCN(C(=O)C3CCN(S(C)(=O)=O)CC3)c3ccc(Cl)c(Cl)c3)CC2)cc1 [Example 250, N-(3,4-Dichlorophenyl)-N-{3-[4-(4-methoxybenzyl)-1-piperidinyl]propyl}-1-(methylsulfonyl)-4-piperidinecarboxamide]
16 | 94 | COc1ccc(CC2CCN(CCCN(C(=O)C3CCN(C(C)=O)CC3)c3ccc(Cl)c(Cl)c3)CC2)cc1 [Example 249, 1-Acetyl-N-(3,4-dichlorophenyl)-N-{3-[4-(4-methoxybenzyl)-1-piperidinyl]propyl}-4-piperidinecarboxamide]
17 | 90 | CC(=O)N1CCC(C(=O)N(CCCN2CCC(Nc3ccc(C#N)cc3)CC2)c2ccc(Cl)c(Cl)c2)CC1 [Example 211, 1-Acetyl-N-{3-[4-(4-cyanoanilino)-1-piperidinyl]propyl}-N-(3,4-dichlorophenyl)-4-piperidinecarboxamide]
18 | 100 | CC(=O)N1CCC(C(=O)N(CCCN2CCC(Cc3ccc(N4CCOCC4)cc3)CC2)c2ccc(Cl)c(Cl)c2)CC1 [Example 318, 1-Acetyl-N-(3,4-dichlorophenyl)-N-{3-[4-(4-morpholinobenzyl)-1-piperidinyl]propyl}-4-piperidinecarboxamide]
19 | 99 | CC(=O)N1CCC(C(=O)N(CCCN2CCC(Cc3ccc(S(N)(=O)=O)cc3)CC2)c2ccc(Cl)c(Cl)c2)CC1 [Example 243, 1-Acetyl-N-(3-{4-[4-(aminosulfonyl)benzyl]-1-piperidinyl}propyl)-N-(3,4-dichlorophenyl)-4-piperidinecarboxamide]
20 | 98 | NC(=O)C(=O)N1CCC(C(=O)N(CCCN2CCC(Cc3ccc(F)cc3)CC2)c2ccc(Cl)c(Cl)c2)CC1 [Example 150, N-(3,4-Dichlorophenyl)-N-{3-[4-(4-fluorobenzyl)-1-piperidinyl]propyl}-1-oxamoyl-4-piperidinecarboxamide Trifluoroacetate]
21 | 99 | CC(=O)N1CCC(C(=O)N(CCCN2CCC(On3nnc4ccccc43)CC2)c2cccc(Cl)c2)CC1 [Example 88, 1-Acetyl-N-(3-chlorophenyl)-N-[3-[4-(1H-benzotriazol-1-yloxy)-1-piperidinyl]propyl]-4-piperidinecarboxamide Trifluoroacetate]
22 | 99 | CN(C)C(=O)N1CCC(C(=O)N(CCCN2CCC(Cc3ccccc3)CC2)c2ccc(Cl)c(Cl)c2)CC1 [Example 27, N-[3-(4-Benzyl-1-piperidinyl)propyl]-N-(3,4-dichlorophenyl)-1-(N,N-dimethylcarbamoyl)-4-piperidinecarboxamide]
